Patent publication US20210380548A1, “Fused [1,2,4]Thiadiazine Derivatives Which Act as KAT Inhibitors of the MYST Family” (CTxT Pty Limited, priority 2017, published 2021)

What was measured:
MOZ-KAT6A [1] = target: T1, MOZ-KAT6A (Homo sapiens, UniProt Q92794, A567V); test: Acetyltransferase biochemical assay (AlphaScreen), KAT6A; settings: Table 2 (MOZ-KAT6A); 10 μM Acetyl coenzyme A, histone H3.1, 5 nM enzyme
T1 construct: encoding amino acid residues 507 to 778 (Uniprot Q92794-1) of human KAT6A; made in house; host or cells: E. coli BL21 DE3
T1 sequence (Q92794 507-778 A567V limits assumed): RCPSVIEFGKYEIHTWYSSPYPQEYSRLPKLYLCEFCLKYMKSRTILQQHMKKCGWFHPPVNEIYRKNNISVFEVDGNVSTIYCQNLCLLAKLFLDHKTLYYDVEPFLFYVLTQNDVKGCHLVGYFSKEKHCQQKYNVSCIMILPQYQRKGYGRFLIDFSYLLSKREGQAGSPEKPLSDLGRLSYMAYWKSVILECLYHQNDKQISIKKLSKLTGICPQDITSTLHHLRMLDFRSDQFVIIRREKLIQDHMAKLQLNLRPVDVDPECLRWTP

TIP60-KAT5 [2] = target: T2, TIP60-KAT5 (Homo sapiens, UniProt Q92993); test: Revised Acetyltransferase Biochemical Assay, KAT5; settings: 10 nM KAT5, 1 μM AcCoA, 100 nM histone H4, 90 min
T2 construct: encoding amino acid residues 2 to 461 (Uniprot Q92993-2) of human KAT5 isoform; made in house; host or cells: E. coli BL21 DE3
T2 sequence (Q92993 2-461 isoform Q92993-2): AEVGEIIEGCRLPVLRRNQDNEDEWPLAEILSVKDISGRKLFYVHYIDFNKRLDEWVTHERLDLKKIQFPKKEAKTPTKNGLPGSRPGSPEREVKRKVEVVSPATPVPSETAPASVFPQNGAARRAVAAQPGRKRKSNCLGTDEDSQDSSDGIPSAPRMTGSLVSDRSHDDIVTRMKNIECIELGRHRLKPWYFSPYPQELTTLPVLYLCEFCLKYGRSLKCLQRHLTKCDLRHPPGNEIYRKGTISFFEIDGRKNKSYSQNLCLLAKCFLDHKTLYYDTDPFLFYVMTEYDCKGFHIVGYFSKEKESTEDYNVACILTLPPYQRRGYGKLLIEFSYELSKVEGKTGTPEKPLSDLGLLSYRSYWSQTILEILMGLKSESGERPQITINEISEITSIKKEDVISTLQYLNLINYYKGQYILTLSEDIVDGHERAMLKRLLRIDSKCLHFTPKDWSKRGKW

QKF-KAT6B [3] = target: T3, QKF-KAT6B (Homo sapiens, UniProt Q8WYB5); test: Revised Acetyltransferase Biochemical Assay, KAT6B; settings: 8 nM KAT6B, 1 μM AcCoA, 100 nM histone H3.1, 90 min
T3 construct: purchased SignalChem K315-381BG
T3 sequence (Q8WYB5 whole entry): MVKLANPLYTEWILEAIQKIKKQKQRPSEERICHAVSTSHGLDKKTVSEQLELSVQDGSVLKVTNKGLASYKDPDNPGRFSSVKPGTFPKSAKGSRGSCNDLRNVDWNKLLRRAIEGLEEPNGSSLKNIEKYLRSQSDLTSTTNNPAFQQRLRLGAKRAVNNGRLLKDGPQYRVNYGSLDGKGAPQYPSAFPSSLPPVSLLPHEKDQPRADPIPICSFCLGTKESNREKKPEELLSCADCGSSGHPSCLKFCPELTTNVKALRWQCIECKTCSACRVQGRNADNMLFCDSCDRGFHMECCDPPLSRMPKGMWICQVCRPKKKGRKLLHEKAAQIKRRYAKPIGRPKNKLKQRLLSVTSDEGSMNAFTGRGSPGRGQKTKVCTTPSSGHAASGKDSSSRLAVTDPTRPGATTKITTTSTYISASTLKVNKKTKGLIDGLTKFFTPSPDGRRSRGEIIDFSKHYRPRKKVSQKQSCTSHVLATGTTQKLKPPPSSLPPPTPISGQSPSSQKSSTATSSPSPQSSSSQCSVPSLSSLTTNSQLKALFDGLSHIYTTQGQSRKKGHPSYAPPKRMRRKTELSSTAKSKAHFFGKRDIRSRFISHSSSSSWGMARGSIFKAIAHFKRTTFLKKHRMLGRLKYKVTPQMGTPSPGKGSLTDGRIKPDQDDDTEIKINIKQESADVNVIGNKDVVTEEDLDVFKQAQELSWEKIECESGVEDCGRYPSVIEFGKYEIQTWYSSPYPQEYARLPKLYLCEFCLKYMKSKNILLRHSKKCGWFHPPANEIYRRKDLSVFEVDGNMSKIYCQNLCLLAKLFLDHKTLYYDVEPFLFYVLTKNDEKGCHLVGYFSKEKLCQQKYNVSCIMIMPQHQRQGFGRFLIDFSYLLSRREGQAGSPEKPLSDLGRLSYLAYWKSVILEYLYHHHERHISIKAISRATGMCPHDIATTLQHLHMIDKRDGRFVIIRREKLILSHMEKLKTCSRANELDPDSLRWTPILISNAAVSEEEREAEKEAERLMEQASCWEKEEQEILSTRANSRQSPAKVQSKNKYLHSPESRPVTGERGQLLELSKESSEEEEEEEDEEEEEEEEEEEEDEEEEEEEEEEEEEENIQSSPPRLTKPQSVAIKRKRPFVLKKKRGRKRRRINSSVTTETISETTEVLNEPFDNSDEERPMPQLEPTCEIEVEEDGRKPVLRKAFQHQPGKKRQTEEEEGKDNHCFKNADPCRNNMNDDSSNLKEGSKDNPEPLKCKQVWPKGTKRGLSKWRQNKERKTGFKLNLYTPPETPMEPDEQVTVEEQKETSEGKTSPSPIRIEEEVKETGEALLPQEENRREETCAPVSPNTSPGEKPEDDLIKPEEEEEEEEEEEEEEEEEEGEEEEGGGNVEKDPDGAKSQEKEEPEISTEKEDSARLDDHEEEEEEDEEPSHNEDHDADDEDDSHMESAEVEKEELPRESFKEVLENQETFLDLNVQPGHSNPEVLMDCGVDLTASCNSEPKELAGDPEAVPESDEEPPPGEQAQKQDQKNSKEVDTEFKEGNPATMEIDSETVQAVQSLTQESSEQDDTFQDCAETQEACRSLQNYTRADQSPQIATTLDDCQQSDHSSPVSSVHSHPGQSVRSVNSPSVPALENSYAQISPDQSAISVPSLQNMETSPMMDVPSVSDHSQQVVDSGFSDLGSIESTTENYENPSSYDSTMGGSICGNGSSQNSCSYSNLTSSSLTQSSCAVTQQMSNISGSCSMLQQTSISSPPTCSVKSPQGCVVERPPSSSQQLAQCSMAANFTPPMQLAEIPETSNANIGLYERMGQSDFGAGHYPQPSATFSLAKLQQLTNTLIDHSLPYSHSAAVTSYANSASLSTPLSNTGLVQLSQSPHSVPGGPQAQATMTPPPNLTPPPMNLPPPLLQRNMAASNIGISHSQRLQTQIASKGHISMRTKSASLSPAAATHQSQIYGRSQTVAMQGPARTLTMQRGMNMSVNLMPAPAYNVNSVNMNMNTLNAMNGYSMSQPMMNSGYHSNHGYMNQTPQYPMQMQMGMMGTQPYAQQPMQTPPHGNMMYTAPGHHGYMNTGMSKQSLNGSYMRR
Text: KAT6B was obtained from SignalChem, catalog ID: K315-381BG

[4] = tested on: histone H2A.Z Lysine 7 acetylation (TIP60 mediated) in U2OS cells; test: H2A.Z Lysine 7 Acetylation Biomarker Assay (96 well, U2OS); assay type: cell-based; settings: Table 7, H2A.Z K7ac, 24 hours incubation, serum free medium
Experimental: To discover a global TIP60/KAT5 cellular biomarker useful for monitoring PD responses of TIP60 inhibition in vitro and in vivo, various histone modifications were assessed for TIP60 dependence through genetic (TIP60 siRNA and CRISPR/Cas9) or TIP60 pharmacological inhibition. This analysis clearly identified acetylation of the histone variant H2A.Z at Lysine 7 (H2A.ZK7ac) as a global histone mark which is TIP60-dependent in both human and mouse cells. To a lesser extent, TIP60 also acetylated lysine 4 and 11 of H2A.Z.
Compounds may be tested for their ability to inhibit the histone H2A.Z Lysine 7 acetylation biomarker (which is TIP60 mediated) in the following assay:
(§1) The cell line U2OS was seeded at a density of 9,000 cells per well in 96 well optical quality tissue culture plates in RPMI medium and 10% foetal bovine serum, and allowed to adhere for 24 hours under standard culture conditions (37 degree Celsius, 5% CO2). At the end of this period the cells were washed with serum free medium. Compound dilutions prepared in DMSO were added to the serum free medium, with negative control wells reserved for treatment with DMSO only and positive controls receiving a potent inhibitor compound (e.g. Example 146) at 20 μM concentration. After incubation for 24 hours, the cells were fixed with 3.7% formaldehyde in PBS for 20 minutes at room temperature, washed with phosphate buffer saline containing 0.1% Tween 20 and blocked with Odyssey blocking buffer (LI-COR, Lincoln, Nebr.) containing 0.1% TritonX100. Anti-H2A.Z K7ac specific antibody (Abcam) in Odyssey blocking buffer containing 0.1% Tween 20 was added and incubated for 14 hours at 4 degree Celsius. After washing, a secondary antibody labelled with Alexa647 dye (LifeTechnologies) and Hoechst 33342 (10 μM, SigmaAldrich) were added for 1 hour incubation. Plates were washed and read on a PerkinElmer Phenix high content imaging platform. Using a Columbus image analysis pipeline, individual nuclei were located by Hoechst 33342 stain and the acetylation level was calculated from the Alexa647-related intensity in the same area. The resulting mean intensity per cell was directly converted to percent inhibition relative to controls on the same plate and the data fitted against a four-parameter logistic model to determine the 50% inhibitory concentration (IC50).

[5] = tested on: histone H3K14 acetylation (HBO1 mediated) in U2OS cells; test: Histone H3 Lysine 14 Acetylation Biomarker Assay (96 well, U2OS); assay type: cell-based; settings: Table 6, H3K14ac, 24 hours incubation, serum free medium
Experimental: Compounds may be tested for their ability to inhibit acetylation of the histone H3K14 marker (which is HBO1 mediated) in the following assay:
as §1, with “of 12,000” for “of 9,000”, “Example 36 in WO2016/198507)” for “Example 146)”, “at 10” for “at 20”, “TritonX100. Anti-H3K14ac” for “TritonX100. Anti-H2A.Z K7ac”, “antibody (Cell Signalling Technologies)” for “antibody (Abcam)”, “33342 (1 μg/mL,” for “33342 (10 μM,”

HBO-KAT7 [6] = target: T4, HBO-KAT7 (Homo sapiens, UniProt O95251); test: Acetyltransferase biochemical assay (AlphaScreen), KAT7; settings: Table 3 (HBO-KAT7); 0.4 μM Acetyl coenzyme A, histone H3.1, 40 nM enzyme
T4 construct: encoding amino acid residues 325 to 611 (Uniprot 095251-1) of human KAT7; made in house; host or cells: E. coli BL21 DE3 RIL
T4 sequence (O95251 with tags, fused parts or gaps): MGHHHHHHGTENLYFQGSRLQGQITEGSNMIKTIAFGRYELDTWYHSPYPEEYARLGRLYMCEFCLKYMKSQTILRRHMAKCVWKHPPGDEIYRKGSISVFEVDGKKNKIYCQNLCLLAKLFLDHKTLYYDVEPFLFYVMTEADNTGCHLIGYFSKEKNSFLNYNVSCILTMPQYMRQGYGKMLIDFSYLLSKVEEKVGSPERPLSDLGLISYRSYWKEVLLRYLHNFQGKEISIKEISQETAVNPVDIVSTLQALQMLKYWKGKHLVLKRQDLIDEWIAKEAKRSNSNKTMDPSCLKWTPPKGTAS

[7] = tested on: histone H3K23 acetylation (KATE mediated) in U2OS cells; test: Histone H3 Lysine 23 Acetylation Biomarker Assay (U2OS); assay type: cell-based; settings: 96 well, 24 hours incubation
Summary of the method: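 U2OS cells were treated with compound for 24 h, then fixed and immunostained for H3K23ac with Hoechst nuclear counterstain. Per-nucleus Alexa647 intensity was quantified by high-content imaging and converted to % inhibition against DMSO and 10 μM reference-inhibitor controls. IC50 was derived from a four-parameter logistic fit.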

HBO-KAT7 [8] = target: T4, HBO-KAT7; test: Revised Acetyltransferase Biochemical Assay, KAT7; settings: Table 9 (HBO-KAT7), 1 μM Acetyl coenzyme A
MOZ-KAT6A [9] = target: T1, MOZ-KAT6A; test: Revised Acetyltransferase Biochemical Assay, KAT6A; settings: Table 8 (MOZ-KAT6A), 1 μM Acetyl coenzyme A
TIP60-KAT5 [10] = target: T2, TIP60-KAT5; test: Acetyltransferase biochemical assay (AlphaScreen), KAT5; settings: Table 1 (TIP60-KAT5); 0.4 μM Acetyl coenzyme A, histone H4, 10 nM enzyme
QKF-KAT6B [11] = target: T3, QKF-KAT6B; test: Acetyltransferase biochemical assay (AlphaScreen), KAT6B; settings: Table 5 (QKF-KAT6B); 0.4 μM Acetyl coenzyme A, histone H3.1, 8 nM enzyme

SMILES | IC50 (MOZ-KAT6A [1]) | IC50 (TIP60-KAT5 [2]) | IC50 (QKF-KAT6B [3]) | IC50 [4] | IC50 [5] | IC50 (HBO-KAT7 [6]) | IC50 [7] | IC50 (HBO-KAT7 [8]) | IC50 (MOZ-KAT6A [9]) | IC50 (TIP60-KAT5 [10]) | IC50 (QKF-KAT6B [11]) | IC50 ([4]; Homo sapiens, 24 h) | IC50 ([5]; Homo sapiens, 24 h) | IC50 ([7]; Homo sapiens, U2OS, 24 h)
O=C(NCC(c1ccccc1)c1ncco1)C1=Nc2ccc(I)cc2S(=O)(=O)N1 (single isomer, unassigned) [Example 146, 7-iodo-N-(2-(oxazol-2-yl)-2-phenylethyl)-2H-benzo[e][1,2,4]thiadiazine-3-carboxamide 1,1-dioxide] | 0.0259 µM | 0.013 µM | 0.019 µM | 0.447 µM | 0.429 µM | 0.16 µM | 0.016 µM | 0.036 µM | 0.002 µM | 0.0468 µM | – | – | – | –
O=C(NCC(c1ccccc1)c1ncco1)C1=Nc2ccc(I)cc2S(=O)(=O)N1 (single isomer, unassigned) [Example 147] | 0.645 µM | 0.132 µM | 0.311 µM | 1.43 µM | 0.193 µM | 0.167 µM | 0.482 µM | 0.057 µM | 0.029 µM | 0.445 µM | – | – | – | –
Cn1cc(-c2ccc3c(c2)S(=O)(=O)NC(C(=O)NCC(c2ccccc2)c2ccccc2)=N3)cn1 [Example 18, N-(2,2-diphenylethyl)-7-(1-methyl-1H-pyrazol-4-yl)-2H-benzo[e][1,2,4]thiadiazine-3-carboxamide 1,1-dioxide] | 3.12 µM | – | – | – | – | – | – | – | – | > 125 µM | 0.268 µM | – | – | –
O=C(NCC(c1ccccc1)c1ncco1)C1=Nc2ccc(I)cc2S(=O)(=O)N1 (stereo not drawn) [Example 41, 7-iodo-N-(2-(oxazol-2-yl)-2-phenylethyl)-2H-benzo[e][1,2,4]thiadiazine-3-carboxamide 1,1-dioxide] | 0.0179 µM | 0.032 µM | 0.028 µM | – | – | 0.0944 µM | – | 0.059 µM | 0.005 µM | 0.0613 µM | – | 1 µM | 0.0861 µM | 0.035 µM
